# pIC50: −log10 of the molar value. Where a name gives a salt, the structure may show the parent alone.
# Experiments:
# male SD rat = experiment: Acetylcholine inductive salivation in rat (Example 5); format: in vivo; settings: for Amount of saliva secreted: rat
# Procedure: (§1) A male SD rat (CLEA Japan Inc.) with a body weight of about 400 g or a Hartley male guinea pig with a body weight of 400 to 500 g (Japan SLC) were used. After urethane anesthesia, sanitary cotton preliminarily weighed was inserted in the mouth of the animal and acetylcholine was intravenously administrated. After 5 minutes, the sanitary cotton was taken out to be weighed and the amount of saliva secreted was measured. The drug was intravenously administrated at 10 min before the administration of acetylcholine. The effect of oxybutynin was analyzed by paired t calibration and the concomitant use effect of the compound A was analyzed by William calibration.
# Hartley male guinea pig = experiment: Acetylcholine inductive salivation in guinea pig (Example 5); format: in vivo
# Procedure: as §1
# [1] = biological target: T1, acetylcholine esterase of human erythrocyte origin (Homo sapiens, UniProt P22303); experiment: biochemical; format: biochemical
# T1 construct: acetylcholine esterase of human erythrocyte origin; purchased Sigma, St. Louis, Mo., USA; host or cells: human erythrocytes
# Procedure: (§2) The AChE inhibitory activity and the BuChE inhibitory activity were determined by a thiocholine method (Ellman method) using acetylcholine esterase of human erythrocyte origin (Sigma, St. Louis, Mo., USA) and butyrylcholine esterase of human serum origin (Biogenesis, Poole, UK). Acetylcholine esterase or butyrylcholine esterase was diluted to a concentration of 0.2 IU/mL with 80 mM tris-HCL buffers (pH=7.4) containing 0.3% bovine serum albumin (BSA) to prepare an enzyme preparation. […] The stock solution was diluted at 3-fold common ratio with 10% DMSO and 80 mM tris-HCl buffers containing 0.3% BSA. On a 96 wells microplate, 20 μL of the drug solution with a given concentration, 30 μL of 80 mM tris-HCl buffers containing 0.3% BSA and 50 μL of the enzyme preparation were distributed, and incubated at room temperature for 1 hour after shaking for 10 seconds. […] For the respective drugs, the test was repeated twice. The % of control of the increase in light absorption was calculated at each concentration with respect to the respective drugs. % of control=increase in light absorption of drug/increase in light absorption of control×100
# [2] = biological target: T2, butyrylcholine esterase of human serum origin (Homo sapiens, UniProt P06276); experiment: biochemical; format: biochemical; settings: mean value of twice tests; read-out: BuChE IC50
# T2 construct: butyrylcholine esterase of human serum origin; purchased Biogenesis, Poole, UK; host or cells: human serum
# Procedure: as §2
# [3] = tested on: Hartley male guinea pig, urethane anesthesia; experiment: Pressure/flow study using guinea pig under continuous phenylephrine (Example 4); format: in vivo; settings: 0.1 mg/kg, i.v.; phenylephrine 3 μg/animal/min
# Procedure: A parameter (the maximum urine flow rate) at urination and a parameter (bladder compliance) at the collection of urine were also measured by a method similar as Example 3 shown below, with respect to the compounds B1 to B6 ([Table 8]).
# A Hartley male guinea pig of 4 to 5 weeks old (Japan SLC) was used. After urethane anesthesia, the medial incision of the lower abdomen was carried out, and the bladder was exposed. Two injection needles (20G) with which a polyethylene tube (PE-100) was linked were inserted in the bladder, and one needle was used for injection of saline and another needle was used for measurement of the inner pressure of the bladder. A catheter was inserted in fernoral vein, and phenylephrine was continuously administrated at a flow rate of 3 μg/animal/min. Saline was continuously injected at a speed of 18 mL/h, the injection was stopped after intermittent urination was confirmed 2 times at minimum, and the saline in the bladder was removed by suction. Injection was started again, and the injection was stopped when the raise of the inner pressure of the bladder just before urination was confirmed. The amount of urine eliminated was measured by an electronic weighing machine and the inner pressure of the bladder was measured using a pressure transducer. The analogue data of the weight of urine and the inner pressure of the bladder were inputted in a multi-channel data analyzer (MP-100A-CE, Biopac systems), and analyzed by a proprietary software (Acqknowledge, Biopac systems). As the parameters, the maximum urine flow rate and bladder compliance were measured. Saline in the bladder was extracted after 10 min of the intravenous administration of the compound, and injection was started again to carry out measurement. The compounds were dissolved with DMSO so that administration volume was 0.5 mL/kg. The change rate of respective parameters before and after administration of the compounds was calculated and the calibration of significant difference was carried out by a solvent administration group and t calibration.
# [4] = tested on: Hartley male guinea pig, urethane anesthesia; experiment: Urine flow dynamic parameters with oxybutynin and compound A (Example 6); format: in vivo; settings: oxybutynin 1 mg/kg
# Procedure: A Hartley male guinea pig with a body weight of about 500 g (Japan SLC Hamamatsu) was used. After urethane anesthesia (1.4 g/kg, i.p.), the medial incision of the lower abdomen was carried out, and the bladder was exposed. Two injection needles (20G) with which a polyethylene tube (PE-100, Becton Dickinson, Franklin Lakes, N.J., USA) was linked were inserted in the bladder, and one needle was used for injection of saline and another needle was used for measurement of the inner pressure of the bladder. Further, a cannula (PE-10, Becton Dickinson) for injection of phenylephrine was inserted in right common jugular vein. […] The amount of urine eliminated was measured by an electronic weighing machine (GX-400, A&D, Tokyo) and the inner pressure of the bladder was measured using a pressure transducer (AP641G, NIPPON KODEN Corporation, Tokyo). The analogue data of the weight of urine and the inner pressure of the bladder were inputted in a multi-channel data analyzer (MP-100A-CE, Biopac systems), and analyzed by a proprietary software (Acqknowledge 3.7.1, Biopac systems). The sampling interval of data was 0.1 sec and a low pass filter was applied to the data of discharge amount and urine flow rate at 0.5 Hz in order to remove noise. A delay time of 0.1 sec in weighing the urine was rectified, and the urine flow rate was determined by differentiating the value of discharge amount. The dynamic state parameter of the flow of urine below was measured. A bladder volume, the maximum urine flow rate, urination efficiency (=amount of urination/bladder volume). The effect of oxybutynin was analyzed by the paired t calibration and the concomitant use effect of the compound A was analyzed by Dunnett calibration.
# [5] = acetylcholine 1 mg/kg alone, 5 minutes
# T1 sequence (P22303 32-617 isoform P22303-2 limits assumed): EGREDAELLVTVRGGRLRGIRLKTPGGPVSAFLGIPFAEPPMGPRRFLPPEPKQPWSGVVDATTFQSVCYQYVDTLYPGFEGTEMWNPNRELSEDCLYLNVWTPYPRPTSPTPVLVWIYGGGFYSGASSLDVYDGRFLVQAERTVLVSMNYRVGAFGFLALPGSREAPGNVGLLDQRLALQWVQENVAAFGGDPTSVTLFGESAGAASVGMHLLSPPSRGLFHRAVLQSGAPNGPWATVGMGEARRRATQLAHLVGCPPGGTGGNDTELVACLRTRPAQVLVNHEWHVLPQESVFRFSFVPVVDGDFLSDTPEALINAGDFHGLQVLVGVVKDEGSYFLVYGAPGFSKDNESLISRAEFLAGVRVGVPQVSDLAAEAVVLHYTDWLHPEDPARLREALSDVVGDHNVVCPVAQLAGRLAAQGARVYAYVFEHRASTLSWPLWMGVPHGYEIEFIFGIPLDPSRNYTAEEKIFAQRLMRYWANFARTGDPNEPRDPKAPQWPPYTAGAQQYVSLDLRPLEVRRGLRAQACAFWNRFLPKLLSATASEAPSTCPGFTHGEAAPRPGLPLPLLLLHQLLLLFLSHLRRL
# T2 sequence (P06276 29-602): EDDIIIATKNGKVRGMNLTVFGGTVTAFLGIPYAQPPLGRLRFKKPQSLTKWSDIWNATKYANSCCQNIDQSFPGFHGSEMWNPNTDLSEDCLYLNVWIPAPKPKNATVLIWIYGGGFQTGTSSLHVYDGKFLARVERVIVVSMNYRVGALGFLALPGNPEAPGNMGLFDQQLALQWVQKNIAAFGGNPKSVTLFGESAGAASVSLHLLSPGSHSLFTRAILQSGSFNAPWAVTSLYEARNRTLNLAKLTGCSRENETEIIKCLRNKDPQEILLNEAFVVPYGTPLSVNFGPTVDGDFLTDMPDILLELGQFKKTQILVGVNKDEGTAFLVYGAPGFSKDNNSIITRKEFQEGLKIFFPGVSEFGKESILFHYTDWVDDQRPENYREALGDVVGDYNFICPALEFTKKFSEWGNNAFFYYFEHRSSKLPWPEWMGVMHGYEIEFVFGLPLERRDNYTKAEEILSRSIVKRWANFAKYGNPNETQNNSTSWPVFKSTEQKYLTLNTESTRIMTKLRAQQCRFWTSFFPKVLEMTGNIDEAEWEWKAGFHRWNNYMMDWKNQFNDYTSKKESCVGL
smiles,measurement,setting,value
CC(=O)OCC[N+](C)(C)C [Acetylcholine],Amount of saliva secreted,male SD rat; [5],0.27 ± 0.04 g
same,Amount of saliva secreted,Hartley male guinea pig; [5],0.23 ± 0.03 g
"Cn1c(=O)n(C)c2cc(C(=O)CCCCNCCc3ccccc3Cl)ccc21 [Compound B6, 5-[5-[[2-(2-chlorophenyl)ethyl]amino]pentanoyl]-1,3-dimethyl-1,3-dihydro-2H-benzoimidazol-2-one) hydrochloride]",Selectivity b/a,[1]; BuChE IC50/AChE IC50 (Table 3),>140
same,pIC50,"[1]; mean value of twice tests, read-out: AchE IC50",7.15
same,pIC50,[2],< 5.00
same,"Bladder compliance, proportion for value before administration",[3],98.6 ± 6.9
same,"Maximum urine flow rate, proportion for value before administration",[3],147.1 ± 26.2
CCN(CC)CC#CCOC(=O)C(O)(c1ccccc1)C1CCCCC1 (centres unmarked) [Oxybutynin],action on acetylcholine-induced secretion of saliva,male SD rat; rat and guinea pig (Tables 9 and 10),significantly suppressed
same,Amount of saliva secreted,male SD rat; oxybutynin 0.1 mg/kg + acetylcholine 1 mg/kg,0.17 ± 0.02 g
same,Amount of saliva secreted,Hartley male guinea pig; oxybutynin 1 mg/kg + acetylcholine 1 mg/kg,0.11 ± 0.02 g
same,"Bladder volume, proportion for value before administration (%)",[4]; iv alone,28.87 ± 7.01 %
same,"Maximum urine flow rate, proportion for value before administration (%)",[4]; iv alone,−44.42 ± 9.44 %
same,"Urination efficiency, proportion for value before administration (%)",[4]; iv alone,−66.14 ± 5.91 %
same,"action on bladder volume, maximum urine flow rate and urination efficiency","[4]; compound A 0.003, 0.01 mg/kg with oxybutynin",significant increase of bladder volume and the lowering of the maximum urine flow rate and urination efficiency were confirmed

# — patent US20070021391A1, “Preventive/remedy for urinary disturbance” (priority 2003, published 2007)
